The record followed here is patent publication US5521173A, “Tricyclic benzazepine vasopressin antagonists” (American Home Products Corporation, priority 1995, dated 1996).

For one assay, the system named is Vasopressin V2. The experiment in a line: Vasopressin V2 Antagonist Activity in Conscious Hydrated Rats. In kind it is in vivo, rat. The settings on record: 10 mg/kg orally, AVP 0.4 μg/kg i.p.; for Osmolality: urine. As for the experimental part:
Two to four rats are used for each compound. One hour later, arginine vasopressin (AVP, antidiuretic hormore, ADH) dissolved in peanut oil is administered at 0.4 μg/kg intraperitoneally. Two rats in each test would not receive arginine vasopressin but only the vehicle (peanut oil) to serve as water-loading control. Twenty minutes later each rat is given 30 mL/kg of deionized water orally by gavage and is placed individually in a metabolic cage equipped with a funnel and a graduated glass cylinder to collect urine for four hours. Urine volume is measured and osmolality analyzed by use of a Fiske One-Ten osmometer (Fiske Assoc., Norwood, Mass., USA). Urinary sodium, potassium, and chloride are analyzed by use of ion-specific electrodes in a Beckman E3 (Electrolyte 3) Analyzer. In the following results, […] and decreased osmolality relative to AVP-control indicates activity.

The target of another assay is T1, oxytocin receptors (Rattus norvegicus, UniProt P70536).
T1 construct: The uteri are dissected out, cleaned of fat and connective tissues; from tissue; host or cells: uteri of DES-treated female Sprague-Dawley rats
T1 sequence (P70536 1-388): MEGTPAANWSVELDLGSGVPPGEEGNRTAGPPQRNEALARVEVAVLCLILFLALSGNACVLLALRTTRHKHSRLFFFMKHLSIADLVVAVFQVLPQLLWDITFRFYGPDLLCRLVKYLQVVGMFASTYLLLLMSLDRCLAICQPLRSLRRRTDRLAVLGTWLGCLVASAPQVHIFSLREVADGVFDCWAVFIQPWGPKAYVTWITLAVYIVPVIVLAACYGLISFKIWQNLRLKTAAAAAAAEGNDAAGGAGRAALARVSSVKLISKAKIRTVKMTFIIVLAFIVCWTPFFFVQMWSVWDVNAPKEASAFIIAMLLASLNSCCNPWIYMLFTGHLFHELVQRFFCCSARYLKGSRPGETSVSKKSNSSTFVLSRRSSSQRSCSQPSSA
Nature of the assay: Oxytocin Receptor Binding. The arrangement: species or system rat (female Sprague-Dawley). The settings on record: for IC50: 1.0 nM [3H]OT. As for the experimental part: Oxytocin Receptor Binding
Female Sprague-Dawley rats weighing approximately 200-250 g are injected intramuscularly (i.m.) with 0.3 mg/kg of body weight of diethylstilbestrol (DES). The rats are sacrificed 18 hours later under pentobarbital anesthesia. The uteri are dissected out, cleaned of fat and connective tissues and rinsed in 50 ml of normal saline. The tissue pooled from six rats is homogenized in 50 ml of […] Tris.HCl, containing 0.5 mM dithiothreitol and 1.0 mM EDTA, adjusted to pH 7.4, using a polytron at setting 6 with three passes of 10 sec each. The homogenate is passed through two (2) layers of cheesecloth and the filtrate centrifuged at 1000× g for 10 min. The clear supernatant is removed and recentrifuged at 165,000× g for 30 min. The resulting pellet containing the oxytocin receptors is resuspended in 50.0 mM Tris.HCl containing 5.0 mM MgCl2 at pH 7.4, to give a protein concentration of 2.5 mg/ml of tissue suspension. This preparation is used in subsequent binding assays with [^3 H]Oxytocin.
Binding of 3,5-[^3 H]Oxytocin ([^3 H]OT) to its receptors is done in microtiter plates using [^3 H]OT, at various concentrations, in an assay buffer of 50.0 mM Tris.HCl, pH 7.4 and containing 5.0 mM MgCl2, and a mixture of protease inhibitors: BSA, 0.1 mg; aprotinin, 1.0 mg; 1,10-phenanthroline, 2.0 mg; […], 10.0 mg; and PMSF, 0.3 mg per 100 ml of buffer solution. Non-specific binding is determined in the presence of 1.0 uM unlabeled OT. The binding reaction is terminated after 60 min., at 22° C., by rapid filtration through glass fiber filters using a Brandel, cell harvester (Biomedical Research and Development Laboratories,Inc., Gaithersburg, Md.). Competition experiments are conducted at equilibrium using 1.0 nM [^3 H]OT and varying the concentration of the displacing agents. The concentrations of agent displacing 50% of [^3 H]OT at its sites (IC50) are calculated by a computer assisted LUNDON-2 program (LUNDON SOFTWARE INC., Ohio, USA).

The next assay relates to Vasopressin V1. The experiment in a line: Vasopressin V1 Antagonist Activity in Conscious Rats (vasopressin vasopressor response). The note with it: for Max % Inhibition: vasopressin vasopressor response. In kind it is in vivo, rat. As for the experimental part: Vasopressin V1 Antagonist Activity in Conscious Rats Conscious rats are restrained in a supine position with elastic tape. The area at the base of the tail is locally anesthetized by subcutaneous in filtration with 2% procaine (0.2 ml). Using aseptic technique the ventral caudal tail artery is isolated and a cannula made of PE 10 and 20 (heat-fused) tubing is passed into the lower abdominal aorta. The cannula is secured, heparinized (1000 i.u./cc), sealed and the wound closed with one or two stitches of Dexon 4-0. The caudal vein is also cannulated in the same manner for intravenous drug administration. The duration of the surgery is approximately 5 minutes. Additional local anesthesia (2% procaine or lidocaine) is provided as needed. The animals are placed in plastic restraining cages in an upright position. The cannula is attached to a Statham P23Db pressure transducer and pulsatile blood pressure is recorded. […] Percentage of antagonism by the compound is calculated using the pre-drug vasopressin vasopressor response as 100%. The results of this test on representative compounds of this invention in which the dose, the maximum % inhibition and the time in minutes, are shown in Table III.

In the case of `O=C(c1ccc(C#Cc2ccccc2)cc1)N1Cc2cccn2Cc2ccccc21` [Example 4, 10,11-Dihydro-10-[4-(phenylethynyl)-5H-pyrrolo[2,1-c]1,4]benzodiazepine], in the assay with Vasopressin V2, the “Urine Volume” value was found to be 6.3 ml/4 hrs and the Osmolality is reported as 1033 mOsm/kg. The inhibition at 10 µM on oxytocin receptors stood at 62%. In the assay on Vasopressin V1 (30 mg/kg iv), the “Time (of maximum % inhibition)” value worked out at 90 min and the “Max % Inhibition” value worked out at 30%.
Consider `O=C(c1ccc(-c2cccs2)cc1)N1Cc2cccn2Cc2ccccc21` [Example 1, 10,11-Dihydro-10-[4-(2-thienyl)benzoyl]-5H-pyrrolo[2,1-c][1,4]benzodiazepine], for which, in the assay with Vasopressin V2, the “Urine Volume” value is given as 5 ml/4 hrs and the Osmolality came out at 1148 mOsm/kg. Also, in the assay on Vasopressin V1 (30 mg/kg po), the “Time (of maximum % inhibition)” value was 120 min and the “Max % Inhibition” value is 53%.
`O=C(c1ccccc1)c1ccc(C(=O)N2Cc3cccn3Cc3ccccc32)cc1` [Example 16, 10-(4-Benzoylbenzoyl)-10,11-dihydro-5H-pyrrolo[2,1-c][1,4]benzodiazepine]: in the assay on Vasopressin V2, the “Urine Volume” value was 6 ml/4 hrs and the Osmolality is 1022 mOsm/kg. In addition, at oxytocin receptors, the inhibition at 10 µM is 100% and the IC50 is 110 nM. Further, in the assay with Vasopressin V1 (10 mg/kg iv), the “Time (of maximum % inhibition)” value is listed as 240 min and the “Max % Inhibition” value is listed as 67%.
`O=C(c1ccc(-c2ccccc2)cc1)N1Cc2cccn2-c2ccccc21` [Example 17, 5-([1,1'-Biphenyl]-4-ylcarbonyl)-4,5-dihydropyrrolo[1,2-a]quinoxaline]: in the assay with Vasopressin V2, the “Urine Volume” value stood at 10.3 ml/4 hrs and the Osmolality was found to be 929 mOsm/kg. At oxytocin receptors, this compound registered an inhibition at 10 µM of 92% and an IC50 of 1090 nM. Further, in the assay on Vasopressin V1 (30 mg/kg iv), the “Time (of maximum % inhibition)” value is 60 min and the “Max % Inhibition” value is 63%.
Regarding `O=C(c1ccc(S(=O)(=O)c2ccccc2)cc1)N1Cc2cccn2Cc2ccccc21` [Example 12], in the assay with Vasopressin V2, the “Urine Volume” value came to 5.8 ml/4 hrs and the Osmolality was determined as 1254 mOsm/kg. This compound also returned an inhibition at 10 µM at oxytocin receptors of 69%.
For the compound `C=CCOc1ccc(-c2ccc(C(=O)N3Cc4cccn4Cc4ccccc43)cc2)cc1` [Example 14, 10,11-Dihydro-10-[[4'-(2-propenyloxy)[1,1'-biphenyl]-4-yl]carbonyl]-5H-pyrrolo[2,1-c][1,4]benzodiazepine], in the assay on Vasopressin V2, the “Urine Volume” value amounted to 4 ml/4 hrs and the Osmolality amounted to 1247 mOsm/kg. For the same compound, on oxytocin receptors, the inhibition at 10 µM came to 67%. Further, in the assay with Vasopressin V1 (30 mg/kg iv), the “Time (of maximum % inhibition)” value amounted to 90 min and the “Max % Inhibition” value was found to be 50%.
For `O=C(c1ccc(-c2nccs2)cc1)N1Cc2cccn2Cc2ccccc21` [Example 10, 10,11-Dihydro-10-[4-(2-thiazolyl)benzoyl]-5H-pyrrolo[2,1-c][1,4]benzodiazepine], on oxytocin receptors, the inhibition at 10 µM is 77% and the IC50 was 2500 nM.
Take `O=C(c1ccc(Sc2ccccc2)cc1)N1Cc2cccn2Cc2ccccc21` [Example 15, 10,11-Dihydro-10-[4-(phenylthio)benzoyl]-5H-pyrrolo[2,1-c][1,4] benzodiazepine]: in the assay with Vasopressin V2, the “Urine Volume” value is listed as 4 ml/4 hrs and the Osmolality was found to be 1278 mOsm/kg. Moreover, on oxytocin receptors, at 10 µM the inhibition was 98% and the IC50 turned out to be 2100 nM.
As for `Cc1ccc(Sc2ccc(C(=O)N3Cc4cccn4Cc4ccccc43)cc2)cc1` [Example 11], in the assay on Vasopressin V2, the “Urine Volume” value was found to be 11 ml/4 hrs and the Osmolality is listed as 825 mOsm/kg. For the same compound, at oxytocin receptors, the inhibition at 10 µM was determined as 86% and the IC50 was 1800 nM. Also, in the assay on Vasopressin V1 (30 mg/kg iv), the “Time (of maximum % inhibition)” value is on record as 300 min and the “Max % Inhibition” value is given as 54%.
